Each structure is given as a SMILES string.

For this experiment, the system named is MPTP-treated mice. The experiment is described as follows: MPTP mouse model. The format is in vivo. The method, then: A) Schematic for experiments in panels B-K. C57BL/6 mice (8 week-old) received 4 i.p. injections of MPTP (20 mg/kg at 2 hr intervals) or vehicle on day 0. […] N=6. […] Quantification of TH protein normalized to control (C,D). N=6. E-G) Example of immunostaining of TH in SNc and striatum (E, scale bars, 500 μm SNc, 1 mm striatum). Quantification of TH-positive neurons in SNc (F) and TH intensity in the striatum (G). N=6. H,I) Dopamine (DA) content in striatum and SnC. N=6. J) Percentage of TH-positive neurons that were positive for TUNEL staining. N=6. K) Behavioral response of mice in rotarod test. Data are duration that mice remained on an accelerated rolling rod normalized to mice at day 0. N=8. Data are examples and mean±SEM. […] Statistical analysis at day 7 and day 14 was Mann-Whitney. In the figure, *p<0.05, **p<0.01.
FIG. 10. […] A) Schematic of experiments in panels B-F. C57BL/6 mice (8 week-old) received 4 i.p. injections of MPTP (20 mg/kg at 2 hr intervals) or vehicle on day 0. […] B,C) Pyruvate and ATP levels in mouse SNc. N=6. D) Mitochondrial DNA (mDNA, 16S and ND1) relative to nuclear DNA (nDNA, intron β-globin) by quantitative PCR of mouse striatum and SNc. N=3. E,F) VDAC (E) and PHB1 (F) protein levels in striatum and SNc assayed by western blot and normalized to control. N=6.
FIG. 12. […] A) Schematic for experiments in panels B-J. C57BL/6 mice (8 week-old) received 4 i.p. injections of MPTP (20 mg/kg at 2 hr intervals) or vehicle on day 0. […] B) Example of TH immunostaining in the SNc on days 7 and 14. Scale bar, 500 μm. C-F) Measurement of DOPAC in mouse striatum (C) and SNc (D) and measurement of HVA in striatum (E) and SNc (F). (N=6). G) Example of TH and TUNEL co-staining in the SNc. TH (green), TUNEL (red), and DAPI (nuclei, blue). Scale bar, 25 μm. Quantitative data are in FIG. 2J. H) Left panels are Nissl staining of neurons in the striatum. Samples were obtained 7 days after MPTP injection. Right panels show the quantification. […] Scale bar, 400 μm. N=3 per group. I,J) Behavioral response of mice in the pole test. (I) Time mice took to turn their heads from upward to downward. (J) Time mice took to climb down the pole. N=8.
MPTP was injected (i.p.) on one day at 20 mg/kg for four times at 2-hour intervals, as previously described (4). […] At the end of the drug or saline treatment, behavioral tests including rotarod test and pole test were carried out before the animals were sacrificed.
The rotarod test was carried out using an automated rotarod (E103, UGO BASILE). At a fixed speed of 15 revolutions per minute (rpm), mice were pre-trained for two consecutive days until they were able to remain on the rod for more than 60 seconds. […] The latency to fall was recorded for a maximum recording time of 600 seconds. The behavior was monitored by a video camera.
This test was carried out by leaving a pole in the cage where the mice were housed. The pole test was performed on the 14th day after MPTP injection as previously described (9). The mouse was placed in a head-upward position on top of a vertical pole (diameter 8 mm, height 55 cm) with a ball (diameter 2.5 cm) on the head of the pole. The pole was wrapped with the nylon gauze to prevent the mouse from slipping down. Each mouse was trained twice before testing. The time that the mouse took to turn his head from upward to downward (Time: Turn) and the time the mouse took to reach the floor with his forepaws (Time: Locomotion Activity) were recorded. Each mouse was tested three times with 5 min. intervals, and the average time was quantified.

Setting [1] is: MPTP 20 mg/kg x4, TZ 10 μg/kg daily, day 7.
Setting [2] is: TZ begun at time of MPTP, day 7.

Regarding `CCOc1ccccc1OCCN[C@H](C)Cc1ccc(OC)c(S(N)(=O)=O)c1` [tamsulosin], the “tyrosine hydroxylase levels in MPTP-treated mice” value (SNc, western blot, FIG. 17B) is reported as “did not rescue”.
As to `COc1cc2nc(N3CCN(C(=O)C4CCCO4)CC3)nc(N)c2cc1OC` (stereo not shown) [TZ, terazosin], under setting [1], the “ATP levels after MPTP” value is reported as “prevented the fall” and the “pyruvate levels after MPTP” value is “prevented the fall”. Besides, under setting [2], the “MPTP-induced defects (TH levels, TH-positive cells, TH immunostaining, dopamine, DOPAC, HVA content, TUNEL-positive TH cells)” value is reported as “attenuated all these defects” and the “motor function (rotarod, pole test)” value is “prevented deficits”. Further, the “MPTP-induced abnormalities (TH, dopamine, DOPAC, HVA, TUNEL)” value (TZ delayed for 7 days after MPTP, day 14) is “improved the abnormalities”. The “motor performance (rotarod, pole test)” value (delayed TZ administration, day 14) was “improved”.
